Data on one molecule can be found in patent US7276531B2, “G-lactam derivatives as prostaglandin agonists” (Applied Research Systems ARS Holding N.V., priority 2003, dated 2007).

One assay addresses T1, hEP2 receptors (Homo sapiens, UniProt P43116).
T1 construct: expressed in transfected cells; host or cells: HEK293-EBNA
Put plainly: EP2 cAMP assay, HEK293-EBNA cells transfected with pCEP4-hEP2 receptors. Particulars: total cAMP, 1 hour. Format: cell-based. As to the method: Compounds of the invention were tested in a total cAMP assay as follows. […] After overnight incubation, the medium was removed from each well and replaced with 45 μl of assay medium consisted of phenol red free D-MEM/F-12, 0.1% BSA (GibcoBRL) and 0.1 mM 3-isobutyl-1-methyl-xanthine (Sigma). […] Total cAMP (intra- and extra-cellular) was measured by using a cAMP-screen ELISA System (Tropix, #CS1000).

The target of another assay is T2, hEP4 receptors (Homo sapiens, UniProt P35408).
T2 construct: expressed in transfected cells; host or cells: HEK293-EBNA
T2 sequence (P35408 whole entry): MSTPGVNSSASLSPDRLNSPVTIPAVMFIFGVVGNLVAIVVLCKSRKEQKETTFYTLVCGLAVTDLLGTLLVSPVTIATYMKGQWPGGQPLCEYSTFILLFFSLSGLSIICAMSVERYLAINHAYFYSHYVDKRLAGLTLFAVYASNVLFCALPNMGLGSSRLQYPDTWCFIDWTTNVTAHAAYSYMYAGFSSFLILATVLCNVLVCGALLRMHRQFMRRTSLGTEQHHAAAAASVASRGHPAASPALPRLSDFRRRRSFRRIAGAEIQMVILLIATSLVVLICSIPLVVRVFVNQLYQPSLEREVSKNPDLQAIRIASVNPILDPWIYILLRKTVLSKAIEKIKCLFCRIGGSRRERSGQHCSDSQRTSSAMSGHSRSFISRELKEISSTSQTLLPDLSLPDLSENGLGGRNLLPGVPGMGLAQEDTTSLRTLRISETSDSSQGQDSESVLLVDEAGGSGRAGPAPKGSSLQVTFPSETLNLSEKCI
Put plainly: EP4 cAMP assay, HEK293-EBNA cells transfected with pCEP4-hEP4 receptors. The assay is classed as cell-based. Particulars: total cAMP, 1 hour. On the procedure: Compounds of the invention were tested in a total cAMP assay as follows. HEK293-EBNA cells transfected with pCEP4-hEP4 receptors were seeded in 96 well opaque plate (Costar #3917) at 4×10^4 cells per well in 100 μl of culture medium (D-MEM/F12 supplemented with 10% FBS, […] L-glutamine, and 250 μg/ml of hygromycin; all from GibcoBRL) and incubated at 37° C. After overnight incubation, the medium was removed from each well and replaced with 45 μl of assay medium consisted of phenol red free D-MEM/F-12, 0.1% BSA (GibcoBRL) and 0.1 mM 3-isobutyl-1-methyl-xanthine (Sigma). After 15 minutes of incubation at 37° C., 16-16-dimethyl PGE-2 or compounds at desired concentrations in 20 μl of assay medium were added to cells and further incubated at 37° C. for 1 hour. Total cAMP (intra- and extra-cellular) was measured by using a cAMP-screen ELISA System (Tropix, #CS1000).
(In general: Cyclic AMP is a second messenger, typically raised through Gs and lowered through Gi signalling.)

A further assay deals with h-EP4 (Homo sapiens, UniProt P35408). Put plainly: EP4 receptor binding assay (3H-PGE2 SPA). The following applies: EP4 receptor membranes, 20 nM 3H-PGE2, pH 6.0. On the procedure: Compounds of the invention were tested in an EP4 receptor binding assay of the following protocol.
h-EP4, sequence (P35408 whole entry): as above
For a further assay, the target named is h-EP2 (Homo sapiens, UniProt P43116). Put plainly: Prostaglandin EP2 receptor binding assay (3H-PGE2 SPA). The following applies: EP2 receptor membranes, 20 nM 3H-PGE2, pH 6.0. As to the method:
Compounds of the invention were tested in an EP2 receptor binding assay of the following protocol. As referred to herein, the term an “EP2 receptor binding assay” designates the following protocol.

In a further assay the test system is LPS-induced TNFα release. Put plainly: In vivo inhibition of LPS-induced TNFα release in mice. The following applies: LPS 0.3 mg/kg i.p. On the procedure: The anti-inflammatory activity of compounds of the invention may be assessed after a LPS challenge using the following protocol:
Eight weeks old C3H/H mice (IFFA-CREDO, L'arbresle, France) receive an oral treatment with compounds of the invention 6 different doses (0.001, 0.01, 0.1, 1 or 3 and 10 mg/kg in 0.5% CMC/0.25% tween-20). Six mice are used by group. Fifteen minutes later, endotoxins (O111:B4 Sigma, 0.3 mg/kg) are intraperitoneally injected. Heparinized whole blood is collected by decapitation. TNFα level is determined in plasma by ELISA (R & D Systems, Abdingdon, UK). Control animals receive 0.5% CMC/0.25% tween-20 (10 ml/kg) as vehicle. Data obtained from experiments are expressed as the mean±SEM and analysed using one-way analysis of variance (ANOVA) followed by Dunnett's t-test.

The test system of assay [1] is methacholine-induced bronchoconstriction. Description: In vivo inhibition of guinea pig broncho-constriction (methacholine-induced). The following applies: Cavia porcellus, IT (intra-tracheal) route, read-out: calculated effective dose (ED50), bronchoconstriction. The text has this:
The activity of compounds of the invention in dilation of bronchiolar muscles, may be tested in different models. Guinea pig pulmonary-cholinergic in vivo model is generally used to test the materials for the treatments of asthma in human (Fleisch et al., 1985) Compounds of the invention can be tested in this methacholine-induced bronchomuscle constriction model as described below.
Groups of 3 Duncan Hartley derived male or female guinea pigs weighing 250±50 g are anesthetized with pentobarbital sodium (50 mg/kg i.p., plus an additional 15 mg/kg i.p. if required) and succinylcholine chloride (2 mg/animal i.p.) is subsequently administered to prevent spontaneous respiration. Body temperature is maintained at 37° to 38° C.
The trachea is cannulated and the guinea pig is ventilated with a Harvard rodent respirator in a closed system. Tracheal pressure is recorded through a side-arm of the cannula connected to a P23ID Statham transducer. […] Mean arterial pressure (BP) is monitored from a cannulated carotid artery, and heart rate (HR) is obtained from chest electrodes arranged for lead II. […]
Compounds of the invention are also tested via intra-tracheal (IT) route of administration. […] Tracheal pressure (ITP), blood pressure and heart rate are measured immediately as indicated in the material and methods sections. […]

h-EP2, sequence (P43116 whole entry): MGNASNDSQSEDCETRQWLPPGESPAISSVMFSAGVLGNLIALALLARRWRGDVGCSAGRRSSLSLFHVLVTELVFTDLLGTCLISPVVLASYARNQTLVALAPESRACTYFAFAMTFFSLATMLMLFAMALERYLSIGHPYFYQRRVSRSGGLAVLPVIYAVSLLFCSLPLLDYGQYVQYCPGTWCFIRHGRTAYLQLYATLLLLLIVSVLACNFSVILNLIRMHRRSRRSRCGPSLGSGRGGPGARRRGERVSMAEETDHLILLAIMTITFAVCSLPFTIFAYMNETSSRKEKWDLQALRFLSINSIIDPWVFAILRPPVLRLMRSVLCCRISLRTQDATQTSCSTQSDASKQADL
T1 sequence (P43116 whole entry): as above

`CCCC/C=C(C)/C=C/[C@H]1CCC(=O)N1CCc1ccc(C(=O)O)cc1` [Example 22, 4-(2-{(2R)-2-[(1E,3E)-3-methylocta-1,3-dienyl]-5-oxopyrrolidin-1-yl}ethyl)benzoic acid]: the EC50 (in general, the concentration at which the effect is half-maximal) on hEP2 receptors is 23 nM; on hEP4 receptors it was 21 nM. Further, the Ki (usually a measure of affinity in units of concentration, obtained from inhibition or displacement) on h-EP4 stood at 145 nM; at h-EP2, 34 nM. Further, the “% of Inhibition of TNF Release Mean ± SEM” value with LPS-induced TNFα release (oral dose 0.001 mg/kg) is given as 46 ± 2%; in the assay on LPS-induced TNFα release (oral dose 0.01 mg/kg) it was 49 ± 4%; in the assay on LPS-induced TNFα release (oral dose 0.1 mg/kg), 59 ± 2%; with LPS-induced TNFα release (oral dose 1 mg/kg) it was 70 ± 4%; with LPS-induced TNFα release (oral dose 10 mg/kg), 87 ± 2%. In addition, the ED50 (usually the dose at which the effect has come halfway, by size or by number of responders) in assay [1] is 0.4 mg/kg.
